14 molecules from ChEMBL document CHEMBL1201862, “PubChem BioAssay data set” (2004) can be followed below.

Test systems include SK-OV-3; SNB-78; M14; SF-295; SK-MEL-5; SW-620; CAKI-1; SK-MEL-2; CCRF-CEM; SN12C; UACC-62; RXF 393; KM12; DMS-114; UO-31.
Holding throughout (assay): NCI-60 cell line screen, 48 h

Each structure is given as a SMILES string.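 Compound exposure: 48 hours, 5 concentrations, 96-well plates. At the GI50, growth is halved.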 Calls of active or inactive are those of the source. Cut-off read from the data, not from the text of the source: active = GI50 up to about 1.1 µM and inactive = higher.

With `CN(C)c1ccc(/C=C(\NC(=O)c2ccccc2)c2nc3cncnc3[nH]2)cc1`, the GI50 with SK-OV-3, with SNB-78, with M14, in the assay with SF-295, with SK-MEL-5 and with SW-620 was > 100 µM (inactive) in each case. Besides, the GI50 in the assay with CAKI-1, with SK-MEL-2, in the assay with CCRF-CEM, in the assay with SN12C, in the assay on UACC-62 and in the assay on RXF 393 was > 100 µM (inactive) throughout. For the same molecule, the GI50 in the assay on KM12, in the assay with DMS-114 and in the assay with UO-31 was > 100 µM (inactive) each time.

As to `CCOCN/C(N)=N\C#N`, the GI50 was > 100 µM (inactive) in the assay on SK-OV-3; > 100 µM (inactive) in the assay on SNB-78; > 100 µM (inactive) in the assay on M14; > 100 µM (inactive) in the assay on SF-295; > 100 µM (inactive) in the assay on SK-MEL-5; 18.3 µM (inactive) with SW-620. Moreover, the GI50 with CAKI-1 was > 100 µM (inactive); in the assay with SK-MEL-2, > 100 µM (inactive); in the assay with CCRF-CEM, > 100 µM (inactive); in the assay on SN12C it was > 100 µM (inactive); with UACC-62, > 100 µM (inactive); in the assay on RXF 393 it was 61.8 µM (inactive). The GI50 in the assay on KM12, with DMS-114 and in the assay on UO-31 was > 100 µM (inactive) in each case.

Consider `NC1=Nc2ccccc2Sc2ccccc21`, for which the GI50 in the assay with SK-OV-3 is > 100 µM (inactive); with SNB-78, > 100 µM (inactive); in the assay on M14, > 100 µM (inactive); with SF-295 it was > 100 µM (inactive); with SK-MEL-5, 91.8 µM (inactive); in the assay with SW-620 it was > 100 µM (inactive). Further, the GI50 in the assay with CAKI-1 was > 100 µM (inactive); in the assay on SK-MEL-2 it was > 100 µM (inactive); with CCRF-CEM, > 100 µM (inactive); in the assay with SN12C it was > 100 µM (inactive); in the assay on UACC-62, > 100 µM (inactive); in the assay with RXF 393 it was 95.7 µM (inactive). Further, the GI50 is > 100 µM (inactive) with KM12, > 100 µM (inactive) in the assay on DMS-114 and 34.4 µM (inactive) in the assay with UO-31.

For `CN1N=CSC12C(=O)N(c1ccc(Cl)cc1)C(=O)N2c1ccc(Cl)cc1` (stereo not drawn), the GI50 with SK-OV-3 was 3.95 µM (inactive); with SNB-78 it was 3.98 µM (inactive); with M14 it was 5.42 µM (inactive); with SF-295 it was 3.28 µM (inactive); with SK-MEL-5 it was 3.55 µM (inactive); in the assay with SW-620, 4.52 µM (inactive). In addition, the GI50 was 3.92 µM (inactive) in the assay on CAKI-1; 3.37 µM (inactive) with CCRF-CEM; 3.44 µM (inactive) with SN12C; 3.36 µM (inactive) in the assay on UACC-62; 5.33 µM (inactive) in the assay on RXF 393; 3.58 µM (inactive) with KM12. Also, the GI50 was 1.87 µM (inactive) with DMS-114 and 2.85 µM (inactive) with UO-31.

For `CCOc1ccc(NC(=O)C(=O)C(C(=O)c2ccc3ccccc3c2)C2OC(=O)c3ccccc32)cc1` (stereo not drawn), the GI50 in the assay on SK-OV-3 was 50.9 µM (inactive); in the assay with SNB-78 it was 4.91 µM (inactive); in the assay on M14 it was 18.5 µM (inactive); in the assay on SK-MEL-5 it was 14.2 µM (inactive); in the assay with SW-620, 15.6 µM (inactive); in the assay on CAKI-1 it was 23.8 µM (inactive). Moreover, the GI50 with SK-MEL-2 is 15.5 µM (inactive); with CCRF-CEM, 7.08 µM (inactive); with SN12C, 17.2 µM (inactive); with UACC-62 it was 13.7 µM (inactive); in the assay with KM12, 32.7 µM (inactive); with DMS-114 it was 14.8 µM (inactive). Besides, the GI50 in the assay with UO-31 was 15.7 µM (inactive).

`O=C(C#Cc1ccccc1)NC/C=C/c1ccccc1`: the GI50 was 22.2 µM (inactive) in the assay with SK-OV-3; 29.9 µM (inactive) with SNB-78; 55.3 µM (inactive) in the assay on M14; 38.6 µM (inactive) in the assay with SF-295; 45.1 µM (inactive) in the assay with SK-MEL-5; 36.9 µM (inactive) with SW-620. Further, the GI50 is 37.2 µM (inactive) with CAKI-1; 35.5 µM (inactive) in the assay with SK-MEL-2; 36.8 µM (inactive) in the assay on CCRF-CEM; 49.9 µM (inactive) in the assay with SN12C; 33.6 µM (inactive) with UACC-62; 14.8 µM (inactive) with RXF 393. Also, the GI50 is 46.7 µM (inactive) with KM12, 46.6 µM (inactive) in the assay with DMS-114 and 33.4 µM (inactive) in the assay with UO-31.

As to `COC(=O)c1cc(Cl)ccc1NC(=O)c1ccc([N+](=O)[O-])cc1`, the GI50 in the assay with SK-OV-3 is 19.7 µM (inactive); in the assay with SNB-78, 32.6 µM (inactive); in the assay with M14 it was 29 µM (inactive); with SF-295, 2.42 µM (inactive); in the assay on SK-MEL-5, 47.5 µM (inactive); with SW-620, 29.9 µM (inactive). In addition, the GI50 was 15.3 µM (inactive) with CAKI-1; 49 µM (inactive) in the assay with SK-MEL-2; 22.8 µM (inactive) in the assay with CCRF-CEM; 24.2 µM (inactive) in the assay on UACC-62; 21.4 µM (inactive) in the assay on RXF 393; 19.8 µM (inactive) with KM12. The GI50 with DMS-114 was 33.5 µM (inactive); in the assay on UO-31, 17.2 µM (inactive).

Regarding `C=C1C(=O)C23C(O)C1CCC2C12CO[C@]3(O)[C@@H](O)C1C(C)(C)CCC2O` (stereo partly drawn), the GI50 in the assay with SK-OV-3 is 20.3 µM (inactive); in the assay on SNB-78, 6.55 µM (inactive); in the assay with M14 it was 11.6 µM (inactive); in the assay with SF-295 it was 16.7 µM (inactive); in the assay on SK-MEL-5, 22.4 µM (inactive); with SW-620 it was 5.81 µM (inactive). The GI50 is 15.2 µM (inactive) in the assay on CAKI-1; 15.7 µM (inactive) in the assay on SK-MEL-2; 1.63 µM (inactive) in the assay on CCRF-CEM; 14.3 µM (inactive) in the assay on SN12C; 11.9 µM (inactive) in the assay on UACC-62; 7.93 µM (inactive) with RXF 393. The GI50 in the assay with KM12 is 16.1 µM (inactive); with DMS-114, 5.82 µM (inactive); with UO-31, 17.1 µM (inactive).

On to `S=C1NC(c2ccccc2)=NC(Cc2ccccc2)(c2ccccc2)N1c1ccccc1` (stereo not drawn), for which the GI50 in the assay on SNB-78 was > 100 µM (inactive); in the assay with M14, > 100 µM (inactive); in the assay on SF-295 it was 37.9 µM (inactive); with SK-MEL-5, > 100 µM (inactive); in the assay on SW-620, > 100 µM (inactive); in the assay with CAKI-1, > 100 µM (inactive). Besides, the GI50 with CCRF-CEM was > 100 µM (inactive); with SN12C, > 100 µM (inactive); in the assay on UACC-62, > 100 µM (inactive); with RXF 393, 68.2 µM (inactive); in the assay on KM12, > 100 µM (inactive); with DMS-114 it was > 100 µM (inactive). Further, the GI50 with UO-31 is > 100 µM (inactive).

With `COc1c(CC(=O)c2ccccc2)c2ccccc2n1C(C)=O`, the GI50 in the assay with SK-OV-3 was > 100 µM (inactive); in the assay with SNB-78 it was > 100 µM (inactive); in the assay with M14, > 100 µM (inactive); with SF-295, 72.9 µM (inactive); in the assay with SW-620, > 100 µM (inactive); with CAKI-1, > 100 µM (inactive). Besides, the GI50 is > 100 µM (inactive) in the assay on SK-MEL-2; > 100 µM (inactive) in the assay with CCRF-CEM; > 100 µM (inactive) in the assay with SN12C; > 100 µM (inactive) with UACC-62; 34.5 µM (inactive) with RXF 393; > 100 µM (inactive) in the assay on KM12. The figures for the GI50 in the assay on DMS-114 and in the assay with UO-31 were > 100 µM (inactive) and 56.8 µM (inactive), respectively.

As to `CCCN1CN(C(C(=O)N[C@@H]2C(=O)N3C(C(=O)O)=C(C)CSC23)c2ccc(O)cc2)CSC1=S` (stereo partly drawn), the GI50 with SK-OV-3 was > 100 µM (inactive); with SNB-78 it was > 100 µM (inactive); in the assay with M14 it was > 100 µM (inactive); in the assay on SF-295, > 100 µM (inactive); in the assay with SK-MEL-5, > 100 µM (inactive); in the assay on SW-620 it was 14.2 µM (inactive). Besides, the GI50 in the assay with CAKI-1 is > 100 µM (inactive); in the assay with SK-MEL-2 it was > 100 µM (inactive); in the assay with CCRF-CEM, 66.8 µM (inactive); in the assay with SN12C it was > 100 µM (inactive); with UACC-62, > 100 µM (inactive); in the assay with KM12 it was > 100 µM (inactive). In addition, the GI50 in the assay with DMS-114 was 52.4 µM (inactive); with UO-31 it was > 100 µM (inactive).

For `CC(C)(C)c1cc(C(O)(C(F)(F)F)C(F)(F)F)c2c(c1)C(C(F)(F)F)(C(F)(F)F)OC(c1ccccc1)(C(C)(C)C)N2` (stereo not drawn), the GI50 in the assay with SK-OV-3 is 2.7 µM (inactive); in the assay on SNB-78, 8.28 µM (inactive); in the assay on M14, 0.659 µM (active); with SF-295, 6.56 µM (inactive); in the assay with SK-MEL-5, 2.45 µM (inactive); with SW-620, 4.5 µM (inactive). Further, the GI50 was 4.02 µM (inactive) in the assay on CAKI-1; 4.45 µM (inactive) with SK-MEL-2; 4.85 µM (inactive) with SN12C; 3.66 µM (inactive) in the assay with UACC-62; 3.37 µM (inactive) with RXF 393; 4.5 µM (inactive) in the assay on KM12. Besides, the GI50 in the assay with DMS-114 was 2.82 µM (inactive); with UO-31, 4.04 µM (inactive).

For `CNC(=O)C(C)Oc1ccc(OCC2CCCCC2)cc1` (stereo not drawn), the GI50 in the assay on SK-OV-3 is > 100 µM (inactive); in the assay on SNB-78, > 100 µM (inactive); with M14, > 100 µM (inactive); in the assay on SF-295, 60.7 µM (inactive); in the assay on SK-MEL-5, 82.6 µM (inactive); with SK-MEL-2 it was > 100 µM (inactive). Moreover, the GI50 in the assay on CCRF-CEM is > 100 µM (inactive); with SN12C, > 100 µM (inactive); in the assay on UACC-62, > 100 µM (inactive); in the assay with RXF 393, > 100 µM (inactive); in the assay on KM12, > 100 µM (inactive); with DMS-114 it was 59.7 µM (inactive). Besides, in the assay with UO-31, the GI50 was 31.7 µM (inactive).

For the molecule `CCC1(N=[N+]=[N-])C(=O)Nc2cc(C)ccc2C1=O` (stereo not drawn), the GI50 in the assay with SK-OV-3 was > 100 µM (inactive); in the assay with SNB-78 it was 86.1 µM (inactive); in the assay with M14 it was 76.7 µM (inactive); in the assay with SF-295, > 100 µM (inactive); in the assay with SK-MEL-5, 51.8 µM (inactive); in the assay on SW-620, > 100 µM (inactive). Moreover, the GI50 in the assay with CAKI-1 is 36.9 µM (inactive); in the assay with SK-MEL-2, > 100 µM (inactive); with CCRF-CEM, 34.3 µM (inactive); in the assay on SN12C it was 48.6 µM (inactive); in the assay with UACC-62, 62.2 µM (inactive); in the assay on KM12, > 100 µM (inactive). In addition, the GI50 with DMS-114 is 38.1 µM (inactive); with UO-31, 46.7 µM (inactive).
